Patent US9266870B2 (TAISHO PHARMACEUTICAL CO., LTD., priority 2012, dated 2016)
Read-outs that look alike come from different tables or passages of the source.

Assays:
[1] = target: human orexin-2 receptor (hOX2R) (Homo sapiens (Human), UniProt O43614); experiment: Measurement of orexin antagonistic activity (intracellular Ca2+ fluorescence, FDSS), hOX2R; assay type: cell-based
Method: (§1) The antagonistic activities of the test compounds on human orexin-1 receptor (hOX1R) and orexin-2 receptor (hOX2R) were measured by modifying from the method described in literature (Toshikatsu Okumura et al., Biochemical and Biophysical Research Communications 280, 976-981, 2001). Chinese hamster ovary (CHO) cells forcibly expressing the hOX1R and hOX2R were seeded into a 96 well Black clear bottom plate (Nunc) at 20,000 cells per well, which were cultured in Ham's F-12 medium containing 0.1 mM MEM non-essential amino acids, 0.5 mg/ml G418, 10% fetal bovine serum (all by Invitrogen) for 16 hours under the conditions of 37° C., 5% CO2. After removing the medium, 100 μL of 0.5 μM Fluo-4AM ester (Dojin) in an assay buffer (25 mM HEPES (Dojin), Hank's balanced salt solution (Invitrogen), 0.1% bovine serum albumin, 2.5 mM probenecid, 200 μg/ml Amaranth (all by Sigma-Aldrich), pH 7.4) was added and the cells were incubated for 60 minutes at 37° C., 5% CO2. After removing the assay buffer containing […] ester, the test compound was dissolved in dimethyl sulfoxide to be 10 mM and diluted with the assay buffer, 150 μL of which was added and incubated for 30 minutes.
(§2) The reaction was measured for the fluorescence intensity of each well every second for 3 minutes using Functional Drug Screening System (FDSS; Hamamatsu Photonics K.K.), and the antagonistic activity was determined using the maximum fluorescence intensity as the indicator of intracellular Ca2+ concentration.

[2] = target: human orexin-1 receptor (hOX1R) (Homo sapiens (Human), UniProt O43613); experiment: Measurement of orexin antagonistic activity (intracellular Ca2+ fluorescence, FDSS), hOX1R; assay type: cell-based; details: ligand peptide (modified human orexin-A) 300 pM, maximum fluorescence intensity
Chain of human orexin-1 receptor (hOX1R) (O43613 whole entry): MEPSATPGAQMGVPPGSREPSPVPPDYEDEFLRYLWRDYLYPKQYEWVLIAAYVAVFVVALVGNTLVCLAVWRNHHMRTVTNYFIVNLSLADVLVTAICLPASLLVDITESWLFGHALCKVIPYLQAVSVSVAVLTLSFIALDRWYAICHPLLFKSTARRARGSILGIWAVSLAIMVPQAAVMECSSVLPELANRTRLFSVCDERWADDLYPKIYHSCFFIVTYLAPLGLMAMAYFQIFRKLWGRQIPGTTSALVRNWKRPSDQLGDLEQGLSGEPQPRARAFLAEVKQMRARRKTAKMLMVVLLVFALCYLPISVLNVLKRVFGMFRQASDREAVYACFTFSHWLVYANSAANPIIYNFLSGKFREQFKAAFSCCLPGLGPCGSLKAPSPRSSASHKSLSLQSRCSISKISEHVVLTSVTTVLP
Method: as §1, with “Chinese” for “The antagonistic activities of the test compounds on human orexin-1 receptor (hOX1R) and orexin-2 receptor (hOX2R) were measured by modifying from the method described in literature (Toshikatsu Okumura et al., Biochemical and Biophysical Research Communications 280, 976-981, 2001). Chinese”
as §2

[3] = CHO cells forcibly expressing hOX2R, ligand peptide (modified human orexin-A) 3 nM, maximum fluorescence intensity, read-out: IC50 Value OX2
[4] = CHO cells forcibly expressing hOX1R, read-out: IC50 Value OX1

Chain of human orexin-2 receptor (hOX2R) (O43614 whole entry): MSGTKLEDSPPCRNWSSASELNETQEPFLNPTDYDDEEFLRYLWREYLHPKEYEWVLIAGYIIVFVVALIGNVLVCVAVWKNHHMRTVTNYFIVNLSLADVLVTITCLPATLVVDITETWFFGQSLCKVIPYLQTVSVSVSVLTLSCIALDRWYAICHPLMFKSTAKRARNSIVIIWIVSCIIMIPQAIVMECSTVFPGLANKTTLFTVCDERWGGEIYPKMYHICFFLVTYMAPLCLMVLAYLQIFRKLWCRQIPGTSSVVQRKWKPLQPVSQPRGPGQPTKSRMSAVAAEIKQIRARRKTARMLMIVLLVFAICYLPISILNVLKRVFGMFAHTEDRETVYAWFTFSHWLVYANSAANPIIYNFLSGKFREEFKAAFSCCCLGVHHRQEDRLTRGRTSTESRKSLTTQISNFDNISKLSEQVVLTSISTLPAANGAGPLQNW

IC50 [1, 3] [nM]	IC50 [2, 4] [nM]	SMILES	IC50 [1] [nM]	IC50 ([2]; IC50 Value OX1, CHO cells forcibly expressing hOX1R) [nM]
460	60.9	Cc1ccc(-n2nccn2)c(C(=O)N2[C@H](C)CO[C@H]2Cn2cc(-c3ccc(F)cn3)cn2)c1 [Example 8, [(2S,4R)-2-[[4-(5-fluoropyridin-2-yl)-1H-pyrazol-1-yl]-methyl]-4-methyl-1,3-oxazolidin-3-yl] [5-methyl-2-(2H-1,2,3-triazol-2-yl)phenyl] methanone]	–	–
59.1	21.7	Cc1ccc(-n2nccn2)c(C(=O)N2CCOC2Cn2ccc(-c3ccc(F)cc3)n2)n1 (single isomer, unassigned; (-)) [Example 26, (−)-(2-[[3-(4-fluorophenyl)-1H-pyrazol-1-yl]methyl]-1,3-oxazolidin-3-yl) [6-methyl-3-(2H-1,2,3-triazol-2-yl)pyridin-2-yl] methanone]	–	–
–	–	Cc1ccc(-n2nccn2)c(C(=O)N2CCCOC2Cn2ccc(-c3ccc(F)cn3)n2)c1 (single isomer, unassigned; (-)) [Example 3, (−)-(2-[[3-(5-fluoropyridin-2-yl)-1H-pyrazol-1-yl]-methyl]-1,3-oxazinan-3-yl)[5-methyl-2-(2H-1,2,3-triazol-2-yl)phenyl] methanone]	1.2	0.7
112	96.3	Cc1ccc(-n2nccn2)c(C(=O)N2CCOC2Cn2cc(-c3ccc(F)cc3)cn2)n1 (racemic) [Example 23, (±)-(2-[[4-(4-fluorophenyl)-1H-pyrazol-1-yl]methyl]-1,3-oxazolidin-3-yl)[6-methyl-3-(2H-1,2,3-triazol-2-yl)pyridin-2-yl]methanone]	–	–
252	17.5	O=C(c1ccccc1-n1nccn1)N1CCOC1Cn1ccc(-c2ccc(F)cn2)n1 (racemic) [Example 11, (±)-(2-{[3-(5-Fluoropyridin-2-yl)-1H-pyrazol-1-yl]methyl}-1,3-oxazolidin-3-yl)[2-(2H-1,2,3-triazol-2-yl)phenyl]methanone]	–	–
20.4	17.2	Cc1ccc(-c2ncccn2)c(C(=O)N2CCCOC2Cc2cnn(-c3ccc(F)cn3)c2)c1 (racemic) [Example 42, (±)-[2-[[1-(5-fluoropyridin-2-yl)-1H-pyrazol-4-yl]methyl]-1,3-oxazinan-3-yl] [5-methyl-2-(pyrimidin-2-yl)phenyl]methanone]	–	–
12.1	2.7	Cc1ccc(-n2nccn2)c(C(=O)N2CCOC2Cc2ccn(-c3ccc(F)cn3)n2)c1 (single isomer, unassigned; (-)) [Example 45, (−)-[2-{[1-(5-Fluoropyridin-2-yl)-1H-pyrazol-3-yl]methyl}-1,3-oxazolidin-3-yl][5-methyl-2-(2H-1,2,3-triazol-2-yl)phenyl]methanone]	–	–
7.3	10.9	Cc1ccc(-n2nccn2)c(C(=O)N2CCCOC2Cn2cc(-c3ccc(F)cc3)cn2)n1 (single isomer, unassigned; (-)) [Example 31, (−)-(2-[[4-(4-fluorophenyl)-1H-pyrazol-1-yl]methyl]-1,3-oxazinan-3-yl) [6-methyl-3-(2H-l,2,3-triazol-2-yl)pyridin-2-yl] methanone]	–	–
4	2.4	Cc1ccc(-c2ncccn2)c(C(=O)N2CCCOC2Cn2ccc(-c3ccc(F)cc3)n2)n1 (single isomer, unassigned; (-)) [Example 28, (−)-(2-[[3-(4-fluorophenyl)-1H-pyrazol-1-yl]methyl]-1,3-oxazinan-3-yl)[6-methyl-3-(pyrimidin-2-yl)pyridin-2-yl] methanone]	–	–
101	12.3	Cc1ccc(-c2ncccn2)c(C(=O)N2CCOC2Cn2ccc(-c3ccc(F)cc3)n2)c1 (racemic) [Example 20, (±)-(2-[[3-(4-fluorophenyl)-1H-pyrazol-1-yl]methyl]-1,3-oxazolidin-3-yl)[5-methyl-2-(pyrimidin-2-yl)phenyl]methanone]	–	–
3	0.9	Cc1ccc(-n2nccn2)c(C(=O)N2CCCOC2Cn2ccc(-c3ccc(F)cc3)n2)n1 (single isomer, unassigned; (-)) [Example 27, (−)-(2-[[3-(4-fluorophenyl)-1H-pyrazol-1-yl]methyl]-1,3-oxazinan-3-yl)[6-methyl-3-(2H-1,2,3-triazol-2-yl)pyridin-2-yl]methanone]	–	–
6.9	3.8	Cc1ccc(-n2nccn2)c(C(=O)N2CCCOC2Cc2noc(-c3ccc(F)cn3)n2)c1 (single isomer, unassigned; (-)) [Example 36, (−)-[2-[[5-(5-fluoropyridin-2-yl)-1,2,4-oxadiazol-3-yl]methyl]-1,3-oxazinan-3-yl] [5-methyl-2-(2H-1,2,3-triazol-2-yl)phenyl] methanone]	–	–
234	30.2	O=C(c1cc(F)ccc1-c1ncccn1)N1CCOC1Cn1ccc(-c2ccc(F)cc2)n1 (racemic) [Example 21]	–	–
71.7	28.9	O=C(c1cc(F)ccc1-c1ncccn1)N1CCOC1Cn1ccc(-c2ccc(F)cn2)n1 (racemic) [Example 16, (±)-(2-[[3-(5-fluoropyridin-2-yl)-1H-pyrazol-1-yl]methyl]-1,3-oxazolidin-3-yl) [5-fluoro-2-(pyrimidin-2-yl)phenyl]methanone]	–	–
6.2	2.2	O=C(c1cc(F)ccc1-c1ncccn1)N1CCCOC1Cn1ccc(-c2ccc(F)cn2)n1 (single isomer, unassigned; (-)) [Example 34, (−)-[2-[[3-(5-fluoropyridin-2-yl)-1H-pyrazol-1-yl]methyl]-l,3-oxazinan-3-yl] [5-fluoro-2-(pyrimidin-2-yl)phenyl]methanone]	–	–
18.6	14.3	Cc1ccc(-n2nccn2)c(C(=O)N2CCOC2Cn2cc(-c3ccc(F)cn3)cn2)c1 (single isomer, unassigned; (-)) [Example 2, (−)-(2-[[4-(5-fluoropyridin-2-yl)-1H-pyrazol-1-yl]-methyl]-1,3-oxazolidin-3-yl)[5-methyl-2-(2H-1,2,3-triazol-2-yl)phenyl] methanone]	–	–
192	26.4	O=C(c1ccccc1-n1nccn1)N1CCOC1Cn1ccc(-c2ccc(F)cc2)n1 (racemic) [Example 18, (±)-(2-[[3-(4-fluorophenyl)-1H-pyrazol-1-yl]methyl]-1,3-oxazolidin-3-yl)[2-(2H-1,2,3-triazol-2-yl)phenyl] methanone]	–	–
1.7	1.1	Cc1ccc(-n2nccn2)c(C(=O)N2CCCOC2Cc2noc(-c3ccc(F)cc3)n2)c1 (single isomer, unassigned; (-)) [Example 37, (−)-[2-[[5-(4-fluorophenyl)-1,2,4-oxadiazol-3-yl]methyl]-1,3-oxazinan-3-yl] [5-methyl-2-(2H-1,2,3-triazol-2-yl)phenyl] methanone]	–	–
22.6	34.4	Cc1ccc(-c2ncccn2)c(C(=O)N2CCCOC2Cn2cc(-c3ccc(F)cc3)cn2)n1 (single isomer, unassigned; (-)) [Example 32, (−)-(2-[[4-(4-fluorophenyl)-1H-pyrazol-1-yl]methyl]-l,3-oxazinan-3-yl)[6-methyl-3-(pyrimidin-2-yl)pyridin-2-yl] methanone]	–	–
38.7	31.9	Cc1ccc(-n2nccn2)c(C(=O)N2CCOC2Cc2cnn(-c3ccc(F)cn3)c2)c1 (single isomer, unassigned; (-)) [Example 46, (−)-[2-{[1-(5-Fluoropyridin-2-yl)-1H-pyrazol-4-yl]methyl}-1,3-oxazolidin-3-yl][5-methyl-2-(2H-1,2,3-triazol-2-yl)phenyl]methanone]	–	–
7.3	2.1	Cc1ccc(-n2nccn2)c(C(=O)N2CCCOC2Cc2noc(-c3ccc(F)cc3)n2)n1 (single isomer, unassigned; (-)) [Example 38, (−)-[2-[[5-(4-fluorophenyl)-1,2,4-oxadiazol-3-yl]methyl]-1,3-oxazinan-3-yl] [6-methyl-3-(2H-1,2,3-triazol-2-yl)pyridin-2-yl] methanone]	–	–

SMILES	IC50 [1, 3] [nM]	IC50 [2, 4] [nM]	IC50 [1] [nM]	IC50 ([2]; IC50 Value OX1, CHO cells forcibly expressing hOX1R) [nM]
Cc1ccc(-n2nccn2)c(C(=O)N2CCOC2Cn2ccc(-c3ccc(F)cn3)n2)n1 (racemic) [Example 13, (±)-(2-[[3-(5-fluoropyridin-2-yl)-1H-pyrazol-1-yl]methyl]-1,3-oxazolidin-3-yl) [6-methyl-3-(2H-l,2,3-triazol-2-yl)pyridin-2-yl] methanone]	251	121	–	–
